Measured values published in patent US20230374043A1, “Hexadeca Ammonium-Modified Phthalocyanine and Preparation Method and Use Thereof as Photodynamic Drug” (Fuzhou University, priority 2020, published 2023).
Where two headings read alike, the source gives them in different places.

What was measured:
[1] = tested on: human liver cancer cells HepG2; assay: dark toxicity and photodynamic anticancer effect on HepG2 cells (MTT); type: cell-based; details: for photodynamic anticancer activity: HepG2, after illumination with red light; for photodynamic activity relative to tetrakis-α-(2,4,6-tris(N,N,N-trimethylammonium methyl)-phenoxy)zinc phthalocyanine dodecaiodate: HepG2, under illumination; for dark toxicity on HepG2 cells: without illumination, 2 h incubation
Protocol: (§1) The dark toxicity and photodynamic anticancer effect of the 2,3-bis[3-(trimethyl ammonium)phenoxy]zinc phthalocyanine diiodate of Example 2, the 1,2,3,4-bis[3-(trimethylammonium)phenoxy]zinc phthalocyanine tetraiodate of Example 4, the octa-β-[3-(trimethylammonium)phenoxy]zinc phthalocyanine octaiodate of Example 6, and the hexadeca-[3-(trimethylammonium)phenoxy]zinc phthalocyanine hexadecaiodate of Example 8 on human liver cancer cells HepG2 were tested, respectively.
The main steps were as follows: the above photosensitive medicaments were separately dissolved in water to obtain 1 mM photosensitizers, and then diluted into a cell medium to prepare cell mediums containing zinc phthalocyanine complexes at different concentrations. The human liver cancer cells HepG2 were cultured in the mediums containing zinc phthalocyanine complexes at different concentrations for 2 h; the medium was discarded; and after washing with PBS, the cells were added into a new medium (without zinc phthalocyanine complexes). Illumination experiment group: the cells were irradiated with red light for 30 min at a power of irradiated light at 15 mW cm^−2 using red light with a wavelength greater than 600 nm as an excitation light source; non-illumination control group: the cells were placed in the dark for 30 min. After illumination or non-illumination, the cell viability was examined by MTT.
(§2) The red light with a wavelength greater than 610 nm was provided by a 500 W halogen lamp connected to an insulated water tank and an optical filter greater than 610 nm.

liver cancer H22 = assay: small animal live imaging in tumor-bearing (liver cancer H22) mouse model; type: in vivo; details: tail vein; for time at which tumor fluorescence reached its peak: 0.8 mol·Kg^-1, imaging within 24 h
Protocol: The 2,3-bis[3-(trimethylammonium)phenoxy]zinc phthalocyanine diiodate of Example 2, the 1,2,3,4-bis[3-(trimethylammonium)phenoxy]zinc phthalocyanine tetraiodate of Example 4, the octa-β-[3-(trimethylammonium)phenoxy]zinc phthalocyanine octaiodate of Example 6, and the hexadeca-[3-(trimethylammonium)phenoxy]zinc phthalocyanine hexadecaiodate of Example 8 each were dissolved in a physiological saline and diluted into solutions to be tested. A tumor-bearing (liver cancer H22) mouse model was established according to a method in the literature (ACS Applied Materials & Interfaces, 2019, 11(40), 36435-36443), 100 μL of each phthalocyanine solution (at an administration dosage: […]) was injected through the tail vein, and small animal live imaging was conducted within the next 24 h.

Staphylococcus aureus [2] = assay: dark toxicity and photodynamic antibacterial effect against Staphylococcus aureus (colony count); type: cell-based; details: for increase compared with the IC90 value of MB: under illumination; for IC90: 4 h incubation, red light >610 nm, 15 mW cm^-2, 30 min, read-out: IC90 value (concentration required to kill 90% of Staphylococcus aureus); for photodynamic antibacterial activity: after illumination with red light; for dark toxicity on Staphylococcus aureus: without illumination, 4 h in PBS, colony count
Protocol: as §1, with “antibacterial” for “anticancer”, “2,3-bis[3-(trimethylammonium)phenoxy]zinc” for “2,3-bis[3-(trimethyl ammonium)phenoxy]zinc”, “against Staphylococcus aureus” for “on human liver cancer cells HepG2”, “tested.” for “tested, respectively.”
1 mM of the photosensitive medicament was diluted into PBS to prepare a PBS solutions containing zinc phthalocyanine complexes at different concentrations, and then Staphylococcus aureus was cultured in the PBS solutions containing zinc phthalocyanine complexes at different concentrations for 4 h. Illumination experiment group: the cells were irradiated with red light for 30 min at a power of irradiated light at 15 mW cm^−2 using red light with a wavelength greater than 610 nm as an excitation light source; non-illumination control group: the cells were placed in the dark for 30 min. A treated cell suspension was inoculated on a surface of a Luria-Bertani medium, cultured for 48 h, and the dark toxicity and photodynamic activity of the photosensitive medicament to Staphylococcus aureus were examined by the number of colonies.
as §2

[3] = ultraviolet-visible absorption spectrum of zinc phthalocyanine complexes in water; type: physicochemical; details: for maximum absorption wavelength: in water; for state in water judged from Q band (aggregation / monomer): 4 μM, no surfactant
Description: It was seen from the figure that the Q bands of the zinc phthalocyanine complexes obtained in Examples 1 to 6 in water each were relatively wide and low, showing different degrees of aggregation; while only the Q bands of the zinc phthalocyanine complexes in Examples 7 and 8 in water were strong and sharp peaks.

subcutaneous tumors = assay: photodynamic tumor inhibition in KM mice with subcutaneous tumors; type: in vivo
Protocol: The zinc phthalocyanine complex obtained in Example 8 was dissolved in physiological saline and diluted to form a solution to be tested. […] with subcutaneous tumors were taken, and each drug was divided into 4 groups (a medication+laser group, a medication group, a normal saline group, and a normal saline+laser group), with 5 mice in each group; when the tumor grew to (60-100) mm^3, 100 μL of a phthalocyanine aqueous solution was injected intravenously at a dosage of […]. After 1 h, the mice were anesthetized and irradiated with laser of (685±5) nm (at a light intensity of 9.4 mW cm^−2 for 10 min). The mice were continued to be fed, and observed every other day; a weight of the mice was measured and a long diameter and a short diameter of the mice were measured with a vernier caliper for a total of 14 d.

Staphylococcus aureus [4] = assay: photodynamic antibacterial effect on mice infected with Staphylococcus aureus; type: in vivo; details: 15 d
Protocol: A photodynamic antibacterial effect of the hexadeca-[3-(trimethylammonium)phenoxy]zinc phthalocyanine hexadecaiodate of Example 8 was tested on mice infected with Staphylococcus aureus.
0.1 mL of a PBS solution containing Staphylococcus aureus colonies was inoculated subcutaneously on the right abdomen of depilated normal-grade KM female mice (weighed about 20 g), at a cell concentration of (1-2)×10^6 CFU·mL^−1, and the mice could be treated two days after inoculation. 4 groups were set up, namely a hexadeca-[3-(trimethylammonium)phenoxy]zinc phthalocyanine hexadecaiodate+laser group, a hexadeca-[3-(trimethylammonium)phenoxy]zinc phthalocyanine hexadecaiodate group, a blank+laser group, and a blank group. Before treatment, a sterile absorbent pad of a wound dressing was soaked with 100 μL of the phthalocyanine aqueous solution (containing 1% CEL), applied to the wound of the treatment group, and fixed with a zinc oxide tape. The wound dressing was applied for 2 h each time, and then the dressing was changed once, and then continued for another 2 h. The blank group was given normal saline for applying. After 4 h, the illumination group was treated with laser at (685±5) nm (with a light intensity of 9.4 mW·cm^−2 for 5 min). The mice were observed and recorded for 15 d. After 15 d, the tissues at the infected site were excised, ground and extracted with 1 mL of a sterilized PBS to obtain a bacterial suspension, diluted by 50 times, spread on the surface of the corresponding Luria-Bertani medium, with parallelly 3 plates for each concentration, cultured in a 37° C. incubator, and then observed and counted after 24 h.

Staphylococcus aureus [5] = details: comparison value, source not stated, read-out: IC90 value of the commonly used photosensitizer; cited from earlier work
[6] = Homo sapiens, HepG2, read-out: half maximal inhibitory concentration (IC50)

Compound | photodynamic anticancer activity [1] | photodynamic activity relative to tetrakis-α-(2,4,6-tris(N,N,N-trimethylammonium methyl)-phenoxy)zinc phthalocyanine dodecaiodate [1] [times] | IC50 [1, 6] [nM] | dark toxicity on HepG2 cells ([1]; MTT) | accumulation / targeting ability in tumor sites (liver cancer H22; 0.8 mol·Kg^-1) | increase compared with the IC90 value of MB (Staphylococcus aureus [2]; Staphylococcus aureus) [times] | IC90 (Staphylococcus aureus [2]; Staphylococcus aureus) [nM] | photodynamic antibacterial activity (Staphylococcus aureus [2]) | dark toxicity on Staphylococcus aureus (Staphylococcus aureus [2]) | maximum absorption wavelength [3] [nm] | state in water judged from Q band (aggregation / monomer) [3] | metabolism in vivo (liver cancer H22; 0.8 mol·Kg^-1) | time at which tumor fluorescence reached its peak (liver cancer H22) | enrichment in organs (liver cancer H22; 0.8 mol·Kg^-1) | other results
C[N+](C)(C)c1cccc(Oc2c(Oc3cccc([N+](C)(C)C)c3)c(Oc3cccc([N+](C)(C)C)c3)c3c(c2Oc2cccc([N+](C)(C)C)c2)C2=Nc4c5ccccc5c5[n]4[Zn@]46[n]7c(c8ccccc8c7=NC3=[N+]24)=NC2=[N+]6C(=N5)c3ccccc32)c1 [Example 4] | high photodynamic anticancer activity | 1.00 | 210 | no killing and growth inhibitory effect | poor accumulation ability in tumor sites | 80 | 74 | high photodynamic antibacterial activity | no killing and growth inhibitory effect |  |  |  |  |  | 
hexadeca-[3-(dimethylammonium)phenoxy]zinc phthalocyanine hexadecaiodate [Example 8] |  | 2.25 |  | no killing and growth inhibitory effect | excellent targeting ability | 86 |  |  | no killing and growth inhibitory effect | 714 | monomers | rapid metabolism in vivo | 2 h |  | IC50 ([1]; HepG2, 2 h incubation, red light >600 nm, 15 mW cm^-2, 30 min, MTT, read-out: half maximal inhibitory concentration (IC50)): 40 nM; time until basically scavenged by the body's metabolism (liver cancer H22; 0.8 mol·Kg^-1): about 6 h; toxicity to mice (subcutaneous tumors; i.v. 0.8 mol·Kg^-1, 14 d): no obvious toxicity; tumor inhibition rate (subcutaneous tumors; medication+laser group, i.v. 0.8 mol·Kg^-1, laser (685±5) nm 9.4 mW cm^-2 10 min after 1 h, 14 d): 98.7%; body weight of the mice in the treatment group (subcutaneous tumors; within 14 d): tendency to increase; IC90 (Staphylococcus aureus [2]): 69 nM; appearance of infected skin site (Staphylococcus aureus [4]; +laser group): crusted; inhibition rate of Staphylococcus aureus colonies from excised tissue (Staphylococcus aureus [4]; +laser group, topical dressing 2x2 h (1% CEL), laser (685±5) nm 9.4 mW·cm^-2 5 min): 98%; appearance of infected skin site (Staphylococcus aureus [4]; compound without laser): obvious lumps
C[N+](C)(C)c1cccc(Oc2cc3c(cc2Oc2cccc([N+](C)(C)C)c2)C2=[N+]4C3=Nc3c5cc(Oc6cccc([N+](C)(C)C)c6)c(Oc6cccc([N+](C)(C)C)c6)cc5c5[n]3[Zn]43[n]4c(c6cc(Oc7cccc([N+](C)(C)C)c7)c(Oc7cccc([N+](C)(C)C)c7)cc6c4=NC4=[N+]3C(=N5)c3cc(Oc5cccc([N+](C)(C)C)c5)c(Oc5cccc([N+](C)(C)C)c5)cc34)=N2)c1 [Example 6, 2,3,9,10,16,17,23,24-octa[3-(trimethylammonium)phenoxy]zinc phthalocyanine octaiodate] |  | 1.50 | 60 | no killing and growth inhibitory effect |  | 83 | 71 |  | no killing and growth inhibitory effect |  |  | low metabolism | about 12 h | enriched to varying degrees in organs such as liver and spleen | 
1,2,3,4,8,9,10,11,15,16,17,18,22,23,24,25-hexadeca[3-(dimethylamino)phenoxy]zinc phthalocyanine complex [Example 7] |  |  |  |  |  |  |  |  |  | 727 | monomers |  |  |  | 
C[N+](C)(C)c1cccc(Oc2cc3c(cc2Oc2cccc([N+](C)(C)C)c2)C2=[N+]4C3=Nc3c5ccccc5c5[n]3[Zn@]43[n]4c(c6ccccc6c4=N2)=NC2=[N+]3C(=N5)c3ccccc32)c1 [Example 2, 2,3-bis[3-(trimethylammonium)phenoxy]zinc phthalocyanine diiodate] | high photodynamic anticancer activity | 1.23 | 170 | no killing and growth inhibitory effect |  | 69 | 85 | high photodynamic antibacterial activity | no killing and growth inhibitory effect |  |  | low metabolism | 12 h | enriched to varying degrees in organs such as liver and spleen | 
CN(C)c1ccc2nc3ccc(=[N+](C)C)cc-3sc2c1 [MB] |  |  |  |  |  |  |  |  |  |  |  |  |  |  | IC90 (Staphylococcus aureus [5]): 5900 nM
